Assay results published in US20250122202A1, “EGFR INHIBITOR, PREPARATION METHOD THEREFOR AND USE THEREOF” (SHANDONG NEW TIME PHARMACEUTICAL CO., LTD., priority 2021, published 2025).
Read-outs that look alike come from different tables or passages of the source.

Tests used:
[1] = system: A549 EGFR-WT; test: Cell proliferation inhibition experiment (CCK-8), A549; conditions: Homo sapiens, A549, 72 h
[2] = system: KC-1474:PC-9 EGFR-Del19/T790M/C797S; test: Cell proliferation inhibition experiment (CCK-8), KC-1474; type: cell-based; conditions: Homo sapiens, 72 h
From the text: (§1) Inhibition rate %=[(A0−AS)/(A0−AC)]×100%.

[3] = system: KC-0178:NCI-1975 EGFR-L858R/T790M/C797S; test: Cell proliferation inhibition experiment (CCK-8), KC-0178; type: cell-based; conditions: Homo sapiens, 72 h
From the text: as §1

[4] = target: EGFR-Del19/T790M/C797S kinase (Homo sapiens, UniProt P00533, C797S/T790M, form not given); test: In-vitro enzyme experiment 2 (HTRF kinase assay), EGFR Del19 T790M C797S; type: biochemical; conditions: read-out: enzyme inhibition IC50 (nM) EGFR-Del19/T790M/C797S
Chain of EGFR-Del19/T790M/C797S kinase (P00533 25-1210 T790M/C797S limits assumed, form open): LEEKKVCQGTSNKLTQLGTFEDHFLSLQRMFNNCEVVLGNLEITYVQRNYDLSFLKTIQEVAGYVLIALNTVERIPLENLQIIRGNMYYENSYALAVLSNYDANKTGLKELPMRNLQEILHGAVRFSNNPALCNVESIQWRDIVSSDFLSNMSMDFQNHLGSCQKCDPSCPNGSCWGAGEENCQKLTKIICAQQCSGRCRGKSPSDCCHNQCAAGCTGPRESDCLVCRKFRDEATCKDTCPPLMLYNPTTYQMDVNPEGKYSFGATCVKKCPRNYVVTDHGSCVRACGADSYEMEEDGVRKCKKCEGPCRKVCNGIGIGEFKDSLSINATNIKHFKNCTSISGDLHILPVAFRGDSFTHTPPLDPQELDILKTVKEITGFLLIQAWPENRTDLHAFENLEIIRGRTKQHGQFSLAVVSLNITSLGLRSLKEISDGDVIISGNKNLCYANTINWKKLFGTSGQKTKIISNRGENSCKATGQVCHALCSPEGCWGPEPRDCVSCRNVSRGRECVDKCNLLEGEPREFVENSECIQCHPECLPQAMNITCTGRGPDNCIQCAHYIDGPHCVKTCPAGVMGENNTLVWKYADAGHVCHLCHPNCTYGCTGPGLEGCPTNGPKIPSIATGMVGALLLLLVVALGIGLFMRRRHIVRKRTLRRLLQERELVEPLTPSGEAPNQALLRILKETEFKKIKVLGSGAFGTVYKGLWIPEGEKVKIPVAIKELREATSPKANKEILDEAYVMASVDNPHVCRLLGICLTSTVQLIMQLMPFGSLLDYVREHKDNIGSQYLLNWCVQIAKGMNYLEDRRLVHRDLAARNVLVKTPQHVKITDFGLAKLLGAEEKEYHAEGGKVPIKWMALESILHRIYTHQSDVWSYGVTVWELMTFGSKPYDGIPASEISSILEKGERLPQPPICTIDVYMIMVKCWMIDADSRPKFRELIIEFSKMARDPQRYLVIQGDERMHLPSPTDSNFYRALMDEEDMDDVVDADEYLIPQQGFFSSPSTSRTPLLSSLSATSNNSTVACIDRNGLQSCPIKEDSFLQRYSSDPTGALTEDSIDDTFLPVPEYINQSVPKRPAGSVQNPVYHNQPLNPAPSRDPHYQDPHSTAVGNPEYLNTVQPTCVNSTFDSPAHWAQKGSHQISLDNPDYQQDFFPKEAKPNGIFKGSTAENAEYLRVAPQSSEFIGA
Method: The specific experiment was as follows: • 1. […] Test method of activity of compound • a) a compound diluent was transferred to each well of an assay plate (784075, Greiner) using Echo 550; • b) the assay plate was sealed and centrifuged at 1,000 g for 1 min; • c) 2×EGFR (D770-N771 ins NPG T790M) was prepared in a 1× kinase buffer; • d) 5 μl of the 2×EGFR (D770-N771 ins NPG T790M) was added to a 384-well assay plate (784075, Greiner); • e) the assay plate was centrifuged at 1,000 g for 30 s and incubated at room temperature for 10 min; • f) 2× TK-substrate-biotin (2 μM) and ATP were added to the 1× kinase buffer and mixed; • g) the reaction was started after adding 5 μl of the TK-substrate-biotin (2 μM) and ATP mixture; • h) the assay plate was centrifuged at 1,000 g for 30 s; and the assay plate was sealed and incubated at room temperature for 40 min; • i) 4× Sa-XL 665 was prepared in an HTRF detection buffer; • j) 5 μl of the Sa-XL 665 and 5 μl of a TK-antibody-cryptate were added to each well of the assay plate; • k) the assay plate was centrifuged at 1,000 g for 30 s and incubated at room temperature for 1 h; and • l) fluorescence signals at 615 nm (cryptate) and 665 nm (XL665) were read on an Envision 2104 reader. • 3. Data analysis • 3.1 Calculation of ratio (665/615 nm) of each well • 3.2 Calculation of inhibition rate
[formula] • 3.3 Calculation of IC50 value of compound and drawing dose-effect curve of compound • IC50 values were calculated using GraphPad 6.0 by applying a non-linear regression curve (dose-effect relationship-variable slope) of the logarithm of the compound concentration versus the inhibition rate.
The preparation of the kinase buffer, the test method of the activity of the compound, and the data analysis referred to the relevant definitions in example 117, wherein step c) of the test method of the activity of the compound was replaced by preparing 2×EGFR Del19 T790M C797S in the 1× kinase buffer.

[5] = system: PC-9 EGFR-Del19; test: Cell proliferation inhibition experiment (CCK-8), PC-9; type: cell-based; conditions: Homo sapiens, 72 h
From the text: as §1

[6] = system: H1975 EGFR-L858R/T790M; test: Cell proliferation inhibition experiment (CCK-8), H1975; type: cell-based; conditions: Homo sapiens, NCI-H1975, 72 h
From the text: as §1

[7] = read-out: cell proliferation inhibition IC50 (μM) A549, 72 h, CCK-8, Table 5 numeric
[8] = read-out: cell proliferation inhibition IC50 (μM) A549
[9] = read-out: cell proliferation inhibition IC50 (μM) A549, 72 h, CCK-8

C=CC(=O)Nc1cccc(Oc2nc(Nc3ccc(N4CCN(C)CC4)c(F)c3)nc3[nH]ccc23)c1 [Avitinib, reference compound]
IC50 [1, 7]: 1.06 µM
IC50 [2]: 0.1 to 1 µM
IC50 [3]: 1 to 2 µM

COc1cc(N2CCC(N3CCN(C)CC3)CC2)ccc1Nc1ncc(Cl)c(Nc2ccccc2P(C)(C)=O)n1 [Brigatinib, reference compound]
IC50 [1, 8]: 6.13 µM

CN1CCN(c2ccc(Nc3nc(N[C@@H]4CCCN(S(=O)(=O)C5CC5)C4)c4c(C(=O)c5ccc(F)cc5)c[nH]c4n3)cc2)CC1 [Example 3]
IC50 [1, 8]: 2.67 µM

Cn1cc(Nc2nc(N[C@@H]3CCCN(S(=O)(=O)C4CC4)C3)c3c(C(=O)c4ccc(F)cc4)c[nH]c3n2)cn1 [Example 4]
IC50 [1, 7]: 6.53 µM

CN1CCN(c2ccc(Nc3nc(NC4(CO)CC4)c4c(C(=O)c5ccc(F)cc5)c[nH]c4n3)cc2)CC1 [Example 10]
IC50 [4]: 10 to 100 nM

CN1CCN(c2ccc(Nc3nc(NC4(CO)CCCC4)c4c(C(=O)c5ccc(F)cc5)c[nH]c4n3)cc2)CC1 [Example 11]
IC50 [4]: 100 to 600 nM

CN1CCN(c2ccc(Nc3nc(N[C@@H]4C=C[C@H](CO)C4)c4c(C(=O)c5ccc(F)cc5)c[nH]c4n3)cc2)CC1 [Example 19]
IC50 [5]: < 0.1 µM
IC50 [1, 9]: 0.1 to 1 µM
IC50 [4]: 10 to 100 nM
IC50 [2]: 0.1 to 1 µM
IC50 [3]: 1 to 2 µM
IC50 [6]: 0.1 to 1 µM

CN1CCN(c2ccc(Nc3nc(N[C@H]4C=C[C@@H](CO)C4)c4c(C(=O)c5ccc(F)cc5)c[nH]c4n3)cc2)CC1 [Example 20]
IC50 [5]: < 0.1 µM
IC50 [1, 9]: 0.1 to 1 µM
IC50 [4]: 10 to 100 nM
IC50 [2]: 0.1 to 1 µM
IC50 [3]: 1 to 2 µM
IC50 [6]: 0.1 to 1 µM

CN1CCN(c2ccc(Nc3nc(N[C@H]4CCCN(S(=O)(=O)C5CC5)C4)c4c(C(=O)c5ccc(F)cc5)c[nH]c4n3)cc2)CC1 [Example 21]
IC50 [1, 7]: 0.61 µM

CN1CCN(c2ccc(Nc3nc(NC4CCCCC4)c4c(C(=O)c5ccc(F)cc5)c[nH]c4n3)cc2)CC1 [Example 41]
IC50 [4]: 100 to 600 nM

CN1CCN(c2ccc(Nc3nc(N[C@@H]4CCN(S(C)(=O)=O)C4)c4c(C(=O)c5ccc(F)cc5)c[nH]c4n3)cc2)CC1 [Example 49]
IC50 [4]: 100 to 600 nM

CN1CCN(c2ccc(Nc3nc(N[C@@H]4CCCN(S(C)(=O)=O)C4)c4c(C(=O)c5ccc(F)cc5)c[nH]c4n3)cc2)CC1 [Example 50]
IC50 [4]: 100 to 600 nM

CN1CCN(c2ccc(Nc3nc(N[C@H]4CCCOC4)c4c(C(=O)c5ccc(F)cc5)c[nH]c4n3)cc2)CC1 [Example 57]
IC50 [4]: 100 to 600 nM

CN1CCN(c2ccc(Nc3nc(N[C@@H]4CCCOC4)c4c(C(=O)c5ccc(F)cc5)c[nH]c4n3)cc2)CC1 [Example 58]
IC50 [4]: 100 to 600 nM

CN1CCN(c2ccc(Nc3nc(NCC4CCOCC4)c4c(C(=O)c5ccc(F)cc5)c[nH]c4n3)cc2)CC1 [Example 59]
IC50 [4]: 100 to 600 nM

CN1CCN(c2ccc(Nc3nc(NC4CCN(S(=O)(=O)C5CC5)CC4)c4c(C(=O)c5ccc(F)cc5)c[nH]c4n3)cc2)CC1 [Example 63]
IC50 [4]: 100 to 600 nM

CN1CCN(c2ccc(Nc3nc(N[C@H]4CCOC4)c4c(C(=O)c5ccc(F)cc5)c[nH]c4n3)cc2)CC1 [Example 67]
IC50 [4]: 100 to 600 nM

CN1CCN(c2ccc(Nc3nc(N[C@@H]4CCOC4)c4c(C(=O)c5ccc(F)cc5)c[nH]c4n3)cc2)CC1 [Example 68]
IC50 [4]: 100 to 600 nM

CO[C@H]1CC[C@H](Nc2nc(Nc3ccc(N4CCN(C)CC4)cc3)nc3[nH]cc(C(=O)c4ccc(F)cc4)c23)CC1 [Example 73]
IC50 [4]: 100 to 600 nM

CN1CCN(c2ccc(Nc3nc(N[C@H]4CC[C@H](CO)CC4)c4c(C(=O)c5ccc(F)cc5)c[nH]c4n3)cc2F)CC1 [Example 78]
IC50 [5]: < 0.1 µM
IC50 [4]: 10 to 100 nM
IC50 [2]: < 0.1 µM
IC50 [3]: 1 to 2 µM
IC50 [6]: 0.1 to 1 µM

COc1cc(N2CCN(C)CC2)ccc1Nc1nc(N[C@H]2CC[C@H](CO)CC2)c2c(C(=O)c3ccc(F)cc3)c[nH]c2n1 [Example 80]
IC50 [4]: 100 to 600 nM

COc1cc(N2CCOCC2)ccc1Nc1nc(N[C@H]2CC[C@H](CO)CC2)c2c(C(=O)c3ccc(F)cc3)c[nH]c2n1 [Example 81]
IC50 [1, 7]: 0.92 µM

O=C(c1ccc(F)cc1)c1c[nH]c2nc(Nc3ccc(N4CCOCC4)c(F)c3)nc(N[C@H]3CC[C@H](CO)CC3)c12 [Example 82]
IC50 [4]: 100 to 600 nM

CN1CCN(c2ccc(Nc3nc(OC4CCOCC4)c4c(C(=O)c5ccc(F)cc5)c[nH]c4n3)cc2)CC1 [Example 84]
IC50 [4]: 100 to 600 nM

CN1CCC(Nc2nc(Nc3ccc(N4CCN(C)CC4)cc3)nc3[nH]cc(C(=O)c4ccc(F)cc4)c23)CC1 [Example 85]
IC50 [4]: 100 to 600 nM

CN1CCN(c2ccc(Nc3nc(N[C@H]4CC[C@@H](N)CC4)c4c(C(=O)c5ccc(F)cc5)c[nH]c4n3)cc2)CC1 [Example 86]
IC50 [5]: < 0.1 µM
IC50 [4]: < 10 nM
IC50 [2]: < 0.1 µM
IC50 [3]: 1 to 2 µM
IC50 [6]: 0.1 to 1 µM

O=C(c1ccc(F)cc1)c1c[nH]c2nc(Nc3ccc(N4CCOCC4)cc3)nc(N[C@@H]3CC[C@@H](CO)OC3)c12 [Example 94]
IC50 [4]: 10 to 100 nM

CN1CCN(c2ccc(Nc3nc(N[C@@H]4CC[C@@H](CO)OC4)c4c(C(=O)c5ccc(F)cc5)c[nH]c4n3)cc2)CC1 [Example 95]
IC50 [4]: 10 to 100 nM
IC50 [2]: 0.1 to 1 µM
IC50 [3]: < 0.1 µM

Cc1ccc(C(=O)c2c[nH]c3nc(Nc4ccc(N5CCOCC5)cc4)nc(N[C@H]4CC[C@H](CO)CC4)c23)cc1 [Example 97]
IC50 [2]: 0.1 to 1 µM
IC50 [3]: 0.1 to 1 µM

O=C(c1ccccc1)c1c[nH]c2nc(Nc3ccc(N4CCOCC4)cc3)nc(N[C@H]3CC[C@H](CO)CC3)c12 [Example 98]
IC50 [4]: 100 to 600 nM

CC(C)N1CCC(Nc2nc(Nc3ccc(N4CCOCC4)cc3)nc3[nH]cc(C(=O)c4ccc(F)cc4)c23)CC1 [Example 99]
IC50 [1, 7]: 0.76 µM

O=C(c1cc(F)cc(F)c1)c1c[nH]c2nc(Nc3ccc(N4CCOCC4)cc3)nc(N[C@H]3CC[C@H](CO)CC3)c12 [Example 101]
IC50 [1, 7]: 0.46 µM

O=C(c1ccc(F)cc1Cl)c1c[nH]c2nc(Nc3ccc(N4CCOCC4)cc3)nc(N[C@H]3CC[C@H](CO)CC3)c12 [Example 105]
IC50 [1, 7]: 0.29 µM

COc1cc(N2CCN(C)CC2)ccc1Nc1nc(N[C@H]2CC[C@@H](CO)CC2)c2c(C(=O)c3ccc(F)cc3)c[nH]c2n1 [Example 106]
IC50 [4]: 10 to 100 nM
IC50 [2]: 0.1 to 1 µM
IC50 [3]: 1 to 2 µM

CN(C)CCOc1ccc(Nc2nc(N[C@H]3CC[C@@H](CO)CC3)c3c(C(=O)c4ccc(F)cc4)c[nH]c3n2)cc1 [Example 107]
IC50 [5]: < 0.1 µM
IC50 [4]: 10 to 100 nM
IC50 [2]: 0.1 to 1 µM
IC50 [3]: 1 to 2 µM
IC50 [6]: 0.1 to 1 µM

O=C(c1ccc(F)c(F)c1F)c1c[nH]c2nc(Nc3ccc(N4CCOCC4)cc3)nc(N[C@H]3CC[C@H](CO)CC3)c12 [Example 108]
IC50 [4]: 100 to 600 nM

COc1nn(C)cc1Nc1nc(N[C@H]2CC[C@H](CO)CC2)c2c(C(=O)c3ccc(F)cc3)c[nH]c2n1 [Example 112]
IC50 [4]: 100 to 600 nM

C=CC(=O)Nc1cc(Nc2nccc(-c3cn(C)c4ccccc34)n2)c(OC)cc1N(C)CCN(C)C [Osimertinib, reference compound]
IC50 [1, 8]: 3.01 µM
IC50 [2]: 1 to 2 µM
IC50 [3]: 1 to 2 µM
